Reference: ChEMBL document CHEMBL3784934, “N-Alkylpyrido[1',2':1,5]pyrazolo-[4,3-d]pyrimidin-4-amines: A new series of negative allosteric modulators of mGlu1/5 with CNS exposure in rodents” (Bioorg Med Chem Lett, 2016)

What was measured:
Format in all cases: functional, cell-based
[1] = biological target: Metabotropic glutamate receptor 1 (Rattus norvegicus, UniProt P23385); experiment: Negative allosteric modulation of rat mGluR1 expressed in HEK293 cells assessed as inhibition of glutamate induced calcium mobilization by calcium mobilization assay
[2] = biological target: Metabotropic glutamate receptor 5 (Rattus norvegicus, UniProt P31424); experiment: Negative allosteric modulation of rat mGluR5 expressed in HEK293 cells assessed as inhibition of glutamate induced calcium mobilization by calcium mobilization assay
[3] = biological target: Metabotropic glutamate receptor 1 (Rattus norvegicus) (UniProt P23385); experiment: Negative allosteric modulation of rat mGluR1 expressed in HEK293 cells assessed as calcium mobilization at 30 uM by calcium mobilization assay relative to 100 uM glutamate
[4] = biological target: Metabotropic glutamate receptor 5 (Rattus norvegicus) (UniProt P31424); experiment: Negative allosteric modulation of rat mGluR5 expressed in HEK293 cells assessed as calcium mobilization at 30 uM by calcium mobilization assay relative to 100 uM glutamate
Sequence of Metabotropic glutamate receptor 5 (Rattus norvegicus) (P31424 21-1203 limits assumed): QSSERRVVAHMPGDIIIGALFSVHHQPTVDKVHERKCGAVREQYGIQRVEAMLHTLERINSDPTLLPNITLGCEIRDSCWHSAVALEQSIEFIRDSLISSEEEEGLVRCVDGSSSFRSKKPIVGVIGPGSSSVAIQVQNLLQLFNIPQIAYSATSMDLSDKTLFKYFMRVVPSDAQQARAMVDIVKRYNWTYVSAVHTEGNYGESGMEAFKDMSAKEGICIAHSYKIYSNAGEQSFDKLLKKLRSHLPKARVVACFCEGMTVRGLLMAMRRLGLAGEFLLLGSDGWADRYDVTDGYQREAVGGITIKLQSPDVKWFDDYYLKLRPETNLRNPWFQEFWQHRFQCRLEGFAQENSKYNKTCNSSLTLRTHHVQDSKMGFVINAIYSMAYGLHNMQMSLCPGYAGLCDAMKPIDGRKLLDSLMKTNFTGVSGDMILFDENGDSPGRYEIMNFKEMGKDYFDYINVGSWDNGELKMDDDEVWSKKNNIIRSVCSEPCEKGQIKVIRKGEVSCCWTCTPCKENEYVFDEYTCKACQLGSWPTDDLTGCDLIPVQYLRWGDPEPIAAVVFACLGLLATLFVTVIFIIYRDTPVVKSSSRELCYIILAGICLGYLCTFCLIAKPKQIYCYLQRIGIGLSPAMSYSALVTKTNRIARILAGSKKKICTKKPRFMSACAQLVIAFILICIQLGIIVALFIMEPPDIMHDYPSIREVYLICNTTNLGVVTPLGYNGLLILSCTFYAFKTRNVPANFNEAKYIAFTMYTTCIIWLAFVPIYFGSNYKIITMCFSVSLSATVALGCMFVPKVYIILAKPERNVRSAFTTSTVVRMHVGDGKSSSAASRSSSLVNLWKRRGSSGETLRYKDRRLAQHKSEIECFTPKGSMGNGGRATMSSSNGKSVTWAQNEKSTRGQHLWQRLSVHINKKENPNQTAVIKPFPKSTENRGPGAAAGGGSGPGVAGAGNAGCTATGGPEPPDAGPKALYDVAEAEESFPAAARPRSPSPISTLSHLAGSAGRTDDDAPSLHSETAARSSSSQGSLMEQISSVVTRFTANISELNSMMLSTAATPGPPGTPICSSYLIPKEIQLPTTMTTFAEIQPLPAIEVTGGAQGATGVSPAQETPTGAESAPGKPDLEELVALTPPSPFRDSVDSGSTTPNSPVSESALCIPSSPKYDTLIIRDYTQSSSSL

Sequence of Metabotropic glutamate receptor 5 (P31424 whole entry): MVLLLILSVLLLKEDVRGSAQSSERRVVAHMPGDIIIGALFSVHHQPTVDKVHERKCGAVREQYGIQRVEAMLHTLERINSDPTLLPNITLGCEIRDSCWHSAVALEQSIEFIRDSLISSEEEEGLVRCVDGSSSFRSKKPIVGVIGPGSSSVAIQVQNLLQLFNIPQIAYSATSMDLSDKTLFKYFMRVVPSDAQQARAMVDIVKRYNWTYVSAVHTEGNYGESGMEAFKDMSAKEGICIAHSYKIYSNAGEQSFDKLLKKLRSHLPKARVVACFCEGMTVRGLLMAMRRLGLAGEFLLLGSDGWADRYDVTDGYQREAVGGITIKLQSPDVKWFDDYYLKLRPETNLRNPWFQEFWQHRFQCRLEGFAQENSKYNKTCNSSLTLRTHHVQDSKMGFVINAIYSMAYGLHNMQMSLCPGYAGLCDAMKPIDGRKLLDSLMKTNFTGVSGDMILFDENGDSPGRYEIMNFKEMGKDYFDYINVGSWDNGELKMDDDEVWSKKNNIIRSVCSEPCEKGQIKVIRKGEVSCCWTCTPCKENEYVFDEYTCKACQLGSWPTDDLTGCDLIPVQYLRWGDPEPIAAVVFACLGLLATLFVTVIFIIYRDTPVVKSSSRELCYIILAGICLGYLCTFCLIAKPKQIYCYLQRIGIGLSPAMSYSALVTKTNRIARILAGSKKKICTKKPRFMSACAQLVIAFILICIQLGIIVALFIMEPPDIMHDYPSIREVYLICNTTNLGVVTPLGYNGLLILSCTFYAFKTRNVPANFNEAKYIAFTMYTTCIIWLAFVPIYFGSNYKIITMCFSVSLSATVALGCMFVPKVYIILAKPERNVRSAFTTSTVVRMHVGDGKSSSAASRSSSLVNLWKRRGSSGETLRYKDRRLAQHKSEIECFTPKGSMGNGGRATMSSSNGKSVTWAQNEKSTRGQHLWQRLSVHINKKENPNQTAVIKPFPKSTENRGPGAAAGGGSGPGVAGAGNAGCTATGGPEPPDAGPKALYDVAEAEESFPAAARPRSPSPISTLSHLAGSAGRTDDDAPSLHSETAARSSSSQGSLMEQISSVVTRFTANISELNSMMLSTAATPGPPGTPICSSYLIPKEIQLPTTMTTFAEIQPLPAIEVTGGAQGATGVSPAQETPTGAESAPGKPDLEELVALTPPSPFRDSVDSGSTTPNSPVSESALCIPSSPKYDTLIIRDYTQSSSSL
Sequence of Metabotropic glutamate receptor 1 (P23385 whole entry): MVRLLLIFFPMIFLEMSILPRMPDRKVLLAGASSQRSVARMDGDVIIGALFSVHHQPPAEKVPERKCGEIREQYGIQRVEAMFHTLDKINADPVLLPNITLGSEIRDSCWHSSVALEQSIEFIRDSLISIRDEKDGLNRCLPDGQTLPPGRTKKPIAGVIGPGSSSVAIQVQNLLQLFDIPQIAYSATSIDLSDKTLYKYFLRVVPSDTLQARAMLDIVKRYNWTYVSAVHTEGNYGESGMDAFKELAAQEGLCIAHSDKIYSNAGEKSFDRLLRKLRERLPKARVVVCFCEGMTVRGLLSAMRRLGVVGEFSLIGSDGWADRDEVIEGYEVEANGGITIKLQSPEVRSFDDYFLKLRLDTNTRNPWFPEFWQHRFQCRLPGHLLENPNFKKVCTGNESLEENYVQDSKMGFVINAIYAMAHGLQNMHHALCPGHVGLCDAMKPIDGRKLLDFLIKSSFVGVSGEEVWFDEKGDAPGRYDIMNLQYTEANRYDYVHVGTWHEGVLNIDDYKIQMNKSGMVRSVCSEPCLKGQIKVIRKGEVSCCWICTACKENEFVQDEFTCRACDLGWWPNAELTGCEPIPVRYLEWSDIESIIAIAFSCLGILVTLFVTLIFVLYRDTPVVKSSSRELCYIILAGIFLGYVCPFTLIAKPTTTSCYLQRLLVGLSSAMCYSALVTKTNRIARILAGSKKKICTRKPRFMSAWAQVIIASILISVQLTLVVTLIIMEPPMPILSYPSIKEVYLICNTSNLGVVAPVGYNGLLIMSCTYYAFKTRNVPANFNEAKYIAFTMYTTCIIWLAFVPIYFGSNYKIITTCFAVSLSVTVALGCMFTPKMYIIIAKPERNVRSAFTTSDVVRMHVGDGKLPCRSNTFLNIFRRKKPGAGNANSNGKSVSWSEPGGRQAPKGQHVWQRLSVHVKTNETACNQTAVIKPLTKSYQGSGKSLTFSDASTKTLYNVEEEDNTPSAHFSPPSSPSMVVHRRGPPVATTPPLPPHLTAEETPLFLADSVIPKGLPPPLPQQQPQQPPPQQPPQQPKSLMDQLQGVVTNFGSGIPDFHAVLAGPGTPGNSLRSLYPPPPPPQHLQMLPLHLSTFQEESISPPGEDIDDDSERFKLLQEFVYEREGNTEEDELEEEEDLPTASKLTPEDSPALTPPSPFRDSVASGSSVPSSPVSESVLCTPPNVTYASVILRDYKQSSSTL
Sequence of Metabotropic glutamate receptor 1 (Rattus norvegicus) (P23385 19-1199 limits assumed): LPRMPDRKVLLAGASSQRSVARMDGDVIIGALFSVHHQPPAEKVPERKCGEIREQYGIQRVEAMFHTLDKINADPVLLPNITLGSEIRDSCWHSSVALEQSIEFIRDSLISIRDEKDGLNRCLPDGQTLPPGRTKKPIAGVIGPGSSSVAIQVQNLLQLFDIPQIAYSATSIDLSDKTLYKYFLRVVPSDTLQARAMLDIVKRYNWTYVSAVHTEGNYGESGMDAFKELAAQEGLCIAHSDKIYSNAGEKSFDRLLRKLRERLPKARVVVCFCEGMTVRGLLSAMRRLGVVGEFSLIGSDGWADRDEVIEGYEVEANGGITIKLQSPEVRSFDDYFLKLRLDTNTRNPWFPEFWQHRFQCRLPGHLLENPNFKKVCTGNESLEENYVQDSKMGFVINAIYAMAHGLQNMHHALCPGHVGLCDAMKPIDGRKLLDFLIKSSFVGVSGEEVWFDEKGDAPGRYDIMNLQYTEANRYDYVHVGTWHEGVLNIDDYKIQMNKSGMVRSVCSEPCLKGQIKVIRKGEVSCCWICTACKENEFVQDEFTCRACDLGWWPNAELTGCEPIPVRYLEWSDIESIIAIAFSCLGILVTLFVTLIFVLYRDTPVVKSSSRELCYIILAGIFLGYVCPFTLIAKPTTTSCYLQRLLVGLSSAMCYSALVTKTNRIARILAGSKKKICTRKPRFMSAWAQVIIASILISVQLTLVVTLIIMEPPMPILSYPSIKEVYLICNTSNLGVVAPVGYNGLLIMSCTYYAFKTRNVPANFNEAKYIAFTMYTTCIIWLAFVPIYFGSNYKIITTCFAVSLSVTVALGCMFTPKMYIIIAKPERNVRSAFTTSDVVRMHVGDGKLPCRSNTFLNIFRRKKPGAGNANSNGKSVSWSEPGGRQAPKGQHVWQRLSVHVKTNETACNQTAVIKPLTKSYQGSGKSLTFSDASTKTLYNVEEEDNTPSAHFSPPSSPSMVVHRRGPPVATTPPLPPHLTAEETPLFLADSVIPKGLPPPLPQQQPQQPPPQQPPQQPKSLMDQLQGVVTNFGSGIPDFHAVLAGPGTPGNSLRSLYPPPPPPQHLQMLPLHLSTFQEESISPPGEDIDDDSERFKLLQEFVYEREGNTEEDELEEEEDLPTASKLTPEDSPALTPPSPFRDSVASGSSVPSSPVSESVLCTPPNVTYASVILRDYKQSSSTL

Q: Which IC50 [1] does the source give for `C[C@H]1CC[C@H](Nc2nc(N)nc3c2nn2ccccc32)CC1` here?
A: 5.6 µM

Q: What about the IC50 ([2]; read-out: IC50) of the same compound?
A: > 30 µM

Q: What about the IC50 ([2]; read-out: pIC50 (converted)) of the same compound?
A: > 31.6 µM

Q: What about the %max [3] of the same compound?
A: 0.58%

Q: How did the IC50 [1] turn out when `COCCNc1nc(N[C@H]2CC[C@H](C)CC2)c2nn3ccccc3c2n1` was run?
A: > 30 µM

Q: What about the IC50 ([2]; read-out: IC50) of the same compound?
A: > 30 µM

Q: What about the IC50 ([2]; read-out: pIC50 (converted)) of the same compound?
A: > 31.6 µM

Q: For `C[C@H]1CC[C@H](Nc2ncnc3c2nn2ccccc32)CC1`, which %max [4] is on record?
A: 2%

Q: What about the IC50 [1] of the same compound?
A: 0.093 µM

Q: And the IC50 ([2]; read-out: IC50)?
A: 2.27 µM

Q: What about the %max [3] of the same compound?
A: 2%

Q: Which %max [4] does the source give for `c1ccn2nc3c(NC4CCCCCC4)ncnc3c2c1` here?
A: 20%

Q: And the IC50 [1]?
A: 0.225 µM

Q: And the IC50 ([2]; hek293, read-out: IC50)?
A: > 10 µM

Q: What about the IC50 ([2]; read-out: pIC50 (converted)) of the same compound?
A: > 10 µM

Q: And the %max [3]?
A: 2%

Q: For `CC1(C)[C@@H]2CC[C@]1(C)[C@@H](Nc1ncnc3c1nn1ccccc31)C2`, which IC50 ([2]; read-out: IC50) is on record?
A: > 30 µM

Q: What about the IC50 ([2]; read-out: pIC50 (converted)) of the same compound?
A: > 31.6 µM

Q: What about the %max [3] of the same compound?
A: 7.1%

Q: What does the source list for `C[C@H](Nc1ncnc2c1nn1ccccc21)C(C)(C)C`?
A: IC50 ([2]; read-out: IC50): > 30 µM; IC50 ([2]; read-out: pIC50 (converted)): > 31.6 µM; %max [3]: -0.2%

Q: With `C[C@@H](Nc1ncnc2c1nn1ccccc21)C(C)(C)C` as the compound, how does the IC50 ([2]; read-out: IC50) read?
A: > 30 µM

Q: And the IC50 ([2]; read-out: pIC50 (converted))?
A: > 31.6 µM

Q: What about the %max [3] of the same compound?
A: 2.2%

Q: For `c1ccn2nc3c(NC4CCCCC4)ncnc3c2c1`, which IC50 ([2]; read-out: IC50) is on record?
A: > 30 µM

Q: What about the IC50 ([2]; read-out: pIC50 (converted)) of the same compound?
A: > 31.6 µM

Q: What about the %max [3] of the same compound?
A: -0.5%

Q: Which results are given for `c1ccn2nc3c(NC45CC6CC(CC(C6)C4)C5)ncnc3c2c1`?
A: %max [4]: 4.8%; IC50 [1]: 0.148 µM; IC50 ([2]; read-out: IC50): 2.36 µM; %max [3]: 2.6%

Q: Which IC50 ([2]; read-out: IC50) does the source give for `Cc1nc(N[C@H]2CC[C@H](C)CC2)c2nn3ccccc3c2n1` here?
A: > 30 µM

Q: And the IC50 ([2]; read-out: pIC50 (converted))?
A: > 31.6 µM

Q: What about the %max [3] of the same compound?
A: 2.6%

Q: Which %max [4] does the source give for `CC(C)(C)CCNc1ncnc2c1nn1ccccc21` here?
A: 1.3%

Q: What about the IC50 [1] of the same compound?
A: 0.341 µM

Q: And the IC50 ([2]; read-out: IC50)?
A: 3.6 µM

Q: And the %max [3]?
A: 1.5%

Q: What does the source list for `CC(C)Nc1nc(N[C@H]2CC[C@H](C)CC2)c2nn3ccccc3c2n1`?
A: IC50 [1]: > 30 µM; IC50 ([2]; read-out: IC50): > 30 µM; IC50 ([2]; read-out: pIC50 (converted)): > 31.6 µM

Q: For `c1ccn2nc3c(NC4C5CC6CC(C5)CC4C6)ncnc3c2c1` (stereo not drawn), which %max [4] is on record?
A: 3.4%

Q: What about the IC50 [1] of the same compound?
A: 0.084 µM

Q: What about the IC50 ([2]; read-out: IC50) of the same compound?
A: 1.75 µM

Q: And the %max [3]?
A: 2.9%

Q: Which IC50 [1] does the source give for `C[C@H](Nc1ncnc2c1nn1ccccc21)C1CC1` here?
A: > 30 µM

Q: What about the IC50 ([2]; read-out: IC50) of the same compound?
A: > 30 µM

Q: What about the IC50 ([2]; read-out: pIC50 (converted)) of the same compound?
A: > 31.6 µM

Q: Which %max [4] does the source give for `C[C@H](Nc1ncnc2c1nn1ccccc21)C1CCCCC1` here?
A: 61.8%

Q: What about the pIC50 ([2]; hek293) of the same compound?
A: < 5

Q: What about the IC50 ([2]; read-out: IC50) of the same compound?
A: > 10 µM

Q: And the %max [3]?
A: 0.9%
